Assay results taken from patent US10391066B2, “Compositions and methods for the treatment of Parkinson's disease” (Texas Tech University System, priority 2012, dated 2019).

Legend:
PP2A [1] = biological target: T1, PP2A (Homo sapiens, UniProt P67775); assay: PP2A activity in response to ceramides and FTY720 compounds (FIG. 8); assay type: biochemical; conditions: for PP2A activity in response to Ceramides: FIG. 8A; for PP2A activity in response to compounds: FIG. 8B, C2 ceramide as internal control
rPP2A = rPP2A (Homo sapiens, UniProt P67775); assay: recombinant PP2A (rPP2A) activity with FTY720 compounds; assay type: biochemical; conditions: versus rPP2A alone; for effect on rPP2A activity: across tested concentrations
PP2A [2] = biological target: T1, PP2A; assay: PP2A activity, cell free assay (FIG. 4A); assay type: biochemical
PP2A [3] = assay: PP2A activity, cellular assay (FIG. 4B); assay type: cell-based
[4] = test system: C57/B16 Mice mouse model of Parkinson's disease; assay: Paraquat mouse model of Parkinson's disease, brain immunohistochemistry (FIG. 5); assay type: in vivo
[5] = test system: BDNF expression in neurons; assay: BDNF trophic factor expression in neurons (FIG. 6); assay type: cell-based
[6] = test system: control and mutant A53T Syn PD mice; assay: Grip strength in control and mutant A53T Syn PD mice (FIG. 7A); assay type: in vivo, mouse; conditions: 5 month old mice, FTY720 twice a week for 14 weeks versus vehicle
[7] = test system: control and mutant A53T Syn PD mice; assay: Anxiety levels in control and mutant A53T Syn PD mice (FIG. 7B); assay type: in vivo, mouse
S1P receptors = conditions: with the exception of S1P2; cited from earlier work
[8] = test system: PP2A in mouse adrenal gland; assay: PP2A activity in mouse adrenal gland after single dosing (FIG. 9B, 9D, 9F); assay type: in vivo; conditions: for effect on PP2A in mouse adrenal gland, IV delivery: single dose (FIG. 9D, 9F)

T1 sequence (P67775 whole entry): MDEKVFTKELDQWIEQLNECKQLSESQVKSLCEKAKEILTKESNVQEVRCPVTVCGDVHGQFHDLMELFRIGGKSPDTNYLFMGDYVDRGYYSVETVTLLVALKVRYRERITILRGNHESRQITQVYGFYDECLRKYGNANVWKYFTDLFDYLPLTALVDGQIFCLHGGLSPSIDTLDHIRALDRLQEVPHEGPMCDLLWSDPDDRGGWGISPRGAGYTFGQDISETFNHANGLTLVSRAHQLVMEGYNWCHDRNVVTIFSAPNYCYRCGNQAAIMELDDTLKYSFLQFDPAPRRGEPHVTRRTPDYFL
Sequence of rPP2A (P67775 whole entry): as above

## CCCCCCCCCCCCC/C=C/[C@@H](O)[C@H](CO)NC(C)=O [C2 ceramide]
PP2A [1]
  PP2A activity in response to Ceramides: able to stimulate PP2A activity
  PP2A activity in response to compounds: significantly stimulate PP2A activity

## CCCCCCCCCCCCCC=CC(O)C(CO)NC(=O)CCCCC (stereo not shown) [Ceramide C6]
PP2A [1]
  PP2A activity in response to Ceramides: able to stimulate PP2A activity

## CCCCCCCCc1ccc(CCC(N)(CO)CO)cc1 [FTY720, 2-amino-2-[2-(4-octylphenyl)ethyl]-1,3-propanediol]
rPP2A
  effect on rPP2A activity at 10 uM: not significantly greater than rPP2A alone
  effect on rPP2A activity: increases rPP2A activity more at lower concentrations than at higher concentrations
PP2A [2]
  PP2A activity, cell free: stimulates PP2A activity
PP2A [3]
  PP2A activity, cellular: stimulates PP2A activity
[4]; C57/B16 mice, FTY720 given before paraquat (PQ)
  Paraquat toxicity: blocks Paraquat Toxicity
[4]; PQ given after FTY720, immunohistochemistry, TH-labelled neurons
  paraquat-stimulated increase in Syn in dopamine neurons: blocks the increase in Syn
[4]; adjacent tissue section
  neuroinflammation as measured by microglial Ibal staining: reduces neuroinflammation
[5]; neurons (FIG. 6B)
  BDNF expression at the message level: increased BDNF expression at the message level
[5]; neurons treated with FTY720, blot (FIG. 6A)
  BDNF at the protein level: increased BDNF at the protein level
[6]
  mouse grip strength: improves mouse grip strength
[7]
  anxiety levels: reduces anxiety levels
PP2A [1]
  PP2A activity in response to compounds: significantly stimulate PP2A activity
S1P receptors
  agonism of S1P receptors: potent agonists of S1P receptors with the exception of S1P2

## CCCCCCCCc1ccc(CCC(CO)(CO)NC(C)=O)cc1 [FTY720-C2, N-(1-hydroxy-2-(hydroxymethyl)-4-(4-octylphenyl)butan-2-yl)ethanamide]
rPP2A
  effect on rPP2A activity: biggest effect
PP2A [1]
  PP2A activity in response to compounds: significantly stimulate PP2A activity
[8]
  effect on PP2A in mouse adrenal gland, IV delivery: stimulatory effects
[8]; gavage, single dose (FIG. 9B)
  effect on PP2A in mouse adrenal gland, oral delivery: stimulatory effects

## CCCCCCCCc1ccc(CCC(CO)(CO)NC(=O)CC[P+](c2ccccc2)(c2ccccc2)c2ccccc2)cc1 [FTY720-Mitoxy, (3-(1-hydroxy-2-(hydroxymethyl)-4-(4-octylphenyl)butan-2-ylamino)-3-oxopropyl) triphenyl phosphonium bromide]
rPP2A
  effect on rPP2A activity at 10 uM: significant inhibitory effect
  effect on rPP2A activity: moderate effect
PP2A [1]
  PP2A activity in response to compounds: significantly stimulate PP2A activity
[8]
  effect on PP2A in mouse adrenal gland, IV delivery: stimulatory effects

## CCCCCCCCc1ccc(CCC(N)(CO)COP(=O)(O)O)cc1 (stereo not shown) [FTY720-P, 2-amino-2-[2-(4-octylphenyl)ethyl]propane-1,3-diol phosphate]
S1P receptors
  agonism of S1P receptors: potent agonists of S1P receptors with the exception of S1P2
